Reference: ChEMBL document CHEMBL4316628, “Bioactivity-guided identification of flavonoids with cholinesterase and β-amyloid peptide aggregation inhibitory effects from the seeds of Millettia pachycarpa” (Bioorg Med Chem Lett, 2019)
Calls of active or inactive are those of the source. No cut-off for these calls is given here.

How the values were obtained:
[1] = molecular target: T1, Cholinesterase (Homo sapiens, UniProt P06276); assay: Inhibition of BChE (unknown origin) at 20 ug/mL using butyrylthiocholine iodide as substrate by spectrophotometry based Ellman's method
T1 sequence (P06276 whole entry): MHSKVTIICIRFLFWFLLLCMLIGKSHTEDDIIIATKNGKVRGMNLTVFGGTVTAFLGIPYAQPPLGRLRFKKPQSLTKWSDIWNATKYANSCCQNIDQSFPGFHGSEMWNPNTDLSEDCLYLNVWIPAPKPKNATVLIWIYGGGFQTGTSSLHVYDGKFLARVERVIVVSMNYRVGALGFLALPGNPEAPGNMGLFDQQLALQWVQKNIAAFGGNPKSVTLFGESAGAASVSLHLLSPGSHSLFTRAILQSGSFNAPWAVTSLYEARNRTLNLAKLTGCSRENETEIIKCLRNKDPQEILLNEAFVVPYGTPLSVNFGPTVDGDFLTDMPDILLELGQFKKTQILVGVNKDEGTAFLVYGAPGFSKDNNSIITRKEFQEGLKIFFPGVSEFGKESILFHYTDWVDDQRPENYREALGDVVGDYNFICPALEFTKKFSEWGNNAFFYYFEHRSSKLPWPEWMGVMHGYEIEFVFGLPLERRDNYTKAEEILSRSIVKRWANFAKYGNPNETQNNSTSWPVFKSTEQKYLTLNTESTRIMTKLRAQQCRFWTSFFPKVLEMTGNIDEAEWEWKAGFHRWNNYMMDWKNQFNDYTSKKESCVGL

[2] = molecular target: T2, Acetylcholinesterase (Homo sapiens, UniProt P22303); assay: Inhibition of AChE (unknown origin) using acetylthiocholine iodide as substrate by spectrophotometry based Ellman's method
T2 sequence (P22303 whole entry): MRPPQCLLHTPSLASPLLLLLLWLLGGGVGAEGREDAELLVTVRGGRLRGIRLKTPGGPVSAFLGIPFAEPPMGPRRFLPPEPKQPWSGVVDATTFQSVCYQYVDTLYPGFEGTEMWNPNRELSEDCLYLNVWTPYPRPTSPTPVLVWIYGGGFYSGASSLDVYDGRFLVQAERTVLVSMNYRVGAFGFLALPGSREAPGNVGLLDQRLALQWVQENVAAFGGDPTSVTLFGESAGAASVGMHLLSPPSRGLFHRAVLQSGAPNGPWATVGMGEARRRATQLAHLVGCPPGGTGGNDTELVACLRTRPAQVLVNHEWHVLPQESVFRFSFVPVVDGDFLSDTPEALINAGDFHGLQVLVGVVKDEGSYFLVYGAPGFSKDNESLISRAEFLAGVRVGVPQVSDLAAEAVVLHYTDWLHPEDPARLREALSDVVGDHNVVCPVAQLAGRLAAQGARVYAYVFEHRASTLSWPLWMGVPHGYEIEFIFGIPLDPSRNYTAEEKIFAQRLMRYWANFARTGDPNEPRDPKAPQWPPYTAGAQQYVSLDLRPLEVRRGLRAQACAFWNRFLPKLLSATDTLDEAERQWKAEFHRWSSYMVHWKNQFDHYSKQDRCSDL

[3] = molecular target: T1, Cholinesterase; assay: Inhibition of BChE (unknown origin) using butyrylthiocholine iodide as substrate by spectrophotometry based Ellman's method
[4] = molecular target: T1, Cholinesterase; assay: Mixed type inhibition of BChE (unknown origin) using butyrylthiocholine iodide as substrate by Ellman's method based Lineweaver-Burk plot analysis
[5] = molecular target: T1, Cholinesterase; assay: Binding affinity to BChE (unknown origin) assessed as reduction in intrinsic protein fluorescence at 25 degC by fluorescence spectrophotometry
[6] = molecular target: Amyloid-beta precursor protein (Homo sapiens) (UniProt P05067); assay: Inhibition of amyloid beta (1 to 42) (unknown origin) self-aggregation at 20 uM incubated for 48 hrs by thioflavin-T fluorescence method
Chain of Amyloid-beta precursor protein (Homo sapiens) (P05067 whole entry): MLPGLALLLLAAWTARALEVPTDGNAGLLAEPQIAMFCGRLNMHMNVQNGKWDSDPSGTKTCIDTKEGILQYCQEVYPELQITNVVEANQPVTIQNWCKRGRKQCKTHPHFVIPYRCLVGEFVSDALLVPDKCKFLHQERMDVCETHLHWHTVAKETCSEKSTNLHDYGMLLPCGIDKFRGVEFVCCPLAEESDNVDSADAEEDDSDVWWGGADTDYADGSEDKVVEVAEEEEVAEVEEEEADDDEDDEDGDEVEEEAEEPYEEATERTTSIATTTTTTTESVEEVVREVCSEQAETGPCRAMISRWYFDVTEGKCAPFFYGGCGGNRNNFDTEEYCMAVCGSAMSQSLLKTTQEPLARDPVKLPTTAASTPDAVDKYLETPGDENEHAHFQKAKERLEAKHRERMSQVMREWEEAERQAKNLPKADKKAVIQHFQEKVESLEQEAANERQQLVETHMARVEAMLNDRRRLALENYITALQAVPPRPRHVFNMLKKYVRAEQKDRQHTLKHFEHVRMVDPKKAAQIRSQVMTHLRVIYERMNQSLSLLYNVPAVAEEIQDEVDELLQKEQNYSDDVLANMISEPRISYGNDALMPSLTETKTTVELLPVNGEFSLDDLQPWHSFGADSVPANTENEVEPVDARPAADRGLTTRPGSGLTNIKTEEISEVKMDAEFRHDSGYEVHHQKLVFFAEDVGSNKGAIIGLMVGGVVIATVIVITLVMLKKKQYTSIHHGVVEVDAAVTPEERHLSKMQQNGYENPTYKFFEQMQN

[7] = molecular target: Amyloid-beta precursor protein (Homo sapiens) (UniProt P05067); assay: Inhibition of amyloid beta (1 to 42) (unknown origin) self-aggregation at 40 uM incubated for 48 hrs by thioflavin-T fluorescence method
[8] = molecular target: Amyloid-beta precursor protein (Homo sapiens) (UniProt P05067); assay: Inhibition of amyloid beta (1 to 42) (unknown origin) self-aggregation at 80 uM incubated for 48 hrs by thioflavin-T fluorescence method
[9] = molecular target: T1, Cholinesterase; conditions: 100 ug/mL
Description: Inhibition of BChE (unknown origin) at 100 ug/mL using butyrylthiocholine iodide as substrate by spectrophotometry based Ellman's method

[10] = molecular target: T2, Acetylcholinesterase; assay: Competitive type inhibition of AChE (unknown origin) using acetylthiocholine iodide as substrate by Ellman's method based Lineweaver-Burk plot analysis
[11] = molecular target: T2, Acetylcholinesterase; assay: Binding affinity to AChE (unknown origin) assessed as reduction in intrinsic protein fluorescence at 25 degC by fluorescence spectrophotometry
[12] = molecular target: Amyloid-beta precursor protein (Homo sapiens) (UniProt P05067); assay: Inhibition of amyloid beta (1 to 42) (unknown origin) self-aggregation incubated for 48 hrs by thioflavin-T fluorescence method
[13] = molecular target: Beta-secretase 1 (Homo sapiens, UniProt P56817); assay: Inhibition of BACE1 (unknown origin) expressed in baculovirus-expression system using Rh-EVNLDAEFK-Quencher substrate by FRET assay
Chain of Beta-secretase 1 (P56817 whole entry): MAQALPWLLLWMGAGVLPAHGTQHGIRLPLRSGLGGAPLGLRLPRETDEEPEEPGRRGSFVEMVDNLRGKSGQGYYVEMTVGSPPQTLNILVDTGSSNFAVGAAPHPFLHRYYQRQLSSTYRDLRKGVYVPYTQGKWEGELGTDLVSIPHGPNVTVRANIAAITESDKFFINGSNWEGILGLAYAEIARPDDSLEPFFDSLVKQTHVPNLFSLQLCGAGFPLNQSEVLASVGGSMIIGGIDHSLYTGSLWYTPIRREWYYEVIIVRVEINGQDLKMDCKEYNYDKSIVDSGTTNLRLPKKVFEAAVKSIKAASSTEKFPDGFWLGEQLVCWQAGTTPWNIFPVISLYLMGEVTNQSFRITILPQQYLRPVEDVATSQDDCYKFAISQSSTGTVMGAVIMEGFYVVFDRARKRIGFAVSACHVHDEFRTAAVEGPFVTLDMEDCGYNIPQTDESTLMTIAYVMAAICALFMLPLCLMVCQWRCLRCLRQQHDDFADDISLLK

What does the source list for `COc1ccc(C2CC(=O)c3ccc4c(c3O2)C=CC(C)(C)O4)cc1` (centres undefined)?
inhibition [1]: 24.7%; IC50 ([2]; read-out: IC50): 91.1 µM; IC50 ([3]; read-out: IC50): 225 µM

For `COc1ccc(-c2coc3c4c(ccc3c2=O)OC(C)(C)C=C4)cc1OC`, which inhibition [1] is on record?
The inhibition was 98.2%.

What about the IC50 ([2]; read-out: IC50) of the same compound?
The IC50 was 131 µM.

And the IC50 ([3]; read-out: IC50)?
Its IC50 is 2.34 µM.

What about the Ki [4] of the same compound?
Its Ki is 0.92 µM.

What about the IC50 [5] of the same compound?
Its IC50 is 7.82 µM.

What about the inhibition [6] of the same compound?
Its inhibition is “inactive”.

What about the inhibition [7] of the same compound?
The inhibition was “inactive”.

And the inhibition [8]?
The inhibition was “inactive”.

Which inhibition [1] does the source give for `COc1ccc2c3c1O[C@H]1C[C@@H](O)C=C[C@@]31CCN(C)C2` here?
Its inhibition is 94.6%.

What about the inhibition [9] of the same compound?
Its inhibition is 94.6%.

How did the inhibition [1] turn out when `COC1=CC(=O)C(OC)(OC)C=C1[C@@]1(O)C(=O)c2ccc3c(c2O[C@@H]1CO)C=CC(C)(C)O3` was run?
The inhibition was 17.1%.

And the IC50 [2]?
Its IC50 is “Not Active”.

And the IC50 [3]?
Its IC50 is “Not Active”.

For `C=C(C)[C@H]1Cc2c(ccc3c2O[C@@H]2COc4cc(OC)c(OC)cc4[C@]2(O)C3=O)O1` [ROTENOLONE], which inhibition [1] is on record?
The inhibition was 9.87%.

What about the IC50 [2] of the same compound?
Its IC50 is “Not Active”.

What about the IC50 [3] of the same compound?
Its IC50 is “Not Active”.

`CC1(C)C=Cc2c(ccc3c2OC(c2ccc(O)cc2)CC3=O)O1` (centres undefined) was tested. Which inhibition [1] did it give?
Its inhibition is 91.9%.

What about the IC50 [2] of the same compound?
The IC50 was “Not Active”.

What about the IC50 ([3]; read-out: IC50) of the same compound?
Its IC50 is 11.5 µM.

What about the Ki [4] of the same compound?
Its Ki is 3.73 µM.

And the IC50 [5]?
Its IC50 is 3.57 µM.

What about the inhibition [6] of the same compound?
The inhibition was 50.9%.

And the inhibition [7]?
Its inhibition is 63.5%.

And the inhibition [8]?
Its inhibition is 73.5%.

Which results are given for `COc1cc2c(cc1OC)[C@@H]1C(=O)c3ccc4c(c3O[C@@H]1CO2)C=CC(C)(C)O4` [DEGUELIN]?
inhibition [1]: 14.2%; IC50 ([2]; read-out: IC50): 127 µM; IC50 [3]: Not Active

With `COc1cc(OC)c(-c2coc3c4c(ccc3c2=O)OC(C)(C)C=C4)cc1OC` as the compound, how does the inhibition [1] read?
Its inhibition is 68.5%.

And the IC50 ([2]; read-out: IC50)?
Its IC50 is 122 µM.

What about the IC50 ([3]; read-out: IC50) of the same compound?
The IC50 was 21.8 µM.

And the inhibition [6]?
The inhibition was “inactive”.

And the inhibition [7]?
Its inhibition is “inactive”.

And the inhibition [8]?
Its inhibition is “inactive”.

How did the inhibition [1] turn out when `COc1ccc(/C=C/C(=O)c2ccc3c(c2O)C=CC(C)(C)O3)cc1` was run?
Its inhibition is 37%.

What about the IC50 ([2]; read-out: IC50) of the same compound?
Its IC50 is 74.7 µM.

And the IC50 ([3]; read-out: IC50)?
Its IC50 is 102 µM.

What does the source list for `CC1(C)C=Cc2c(ccc(C(=O)/C=C/c3ccc(O)cc3)c2O)O1`?
inhibition [1]: 86.5%; IC50 ([2]; read-out: IC50): 17.1 µM; IC50 ([3]; read-out: IC50): 5.68 µM; Ki [4]: 3.48 µM; Ki [10]: 7.39 µM; Activity [11]: Dose-dependent effect; IC50 [11]: 29.6 µM; Activity [5]: Dose-dependent effect; IC50 [5]: 2.57 µM; inhibition [12]: Dose-dependent effect; inhibition [6]: 53.7%; inhibition [7]: 65.7%; inhibition [8]: 73.3%; IC50 [13]: 9.8 µM

Which inhibition [6] does the source give for `COc1cc(/C=C/C(=O)CC(=O)/C=C/c2ccc(O)c(OC)c2)ccc1O` here?
The inhibition was “Active”.

And the inhibition [7]?
The inhibition was “Active”.

And the inhibition [8]?
Its inhibition is “Active”.

How did the inhibition [1] turn out when `COc1cc2c(cc1OC)[C@]1(O)C(=O)c3ccc4c(c3O[C@@H]1CO2)C=CC(C)(C)O4` [TEPHROSIN] was run?
Its inhibition is 16.2%.

What about the IC50 ([2]; read-out: IC50) of the same compound?
Its IC50 is 127 µM.

And the IC50 [3]?
The IC50 was “Not Active”.
